Test results: ChEMBL document CHEMBL5230160, “Chemotherapeutics for Toxoplasma gondii: Molecular Biotargets, Binding Modes, and Structure-Activity Relationship Investigations” (J Med Chem, 2021)
In brackets after ≈: the same amount, converted by molar mass.

Assays:
Toxoplasma gondii [1] = assay: Antiparasitic activity against Toxoplasma gondii infected in African green monkey Vero cells assessed as parasitic growth inhibition incubated for 24 hrs by PCR method; type: functional, organism-based
[2] = Inhibition of Toxoplasma gondii GST-taggged IF2Kalpha in presence of ATP by ADP-Glo kinase assay
Toxoplasma gondii [3] = assay: Antiparasitic activity against Toxoplasma gondii RH tachyzoites infected in HFF cells in presence of CPRG by crystal violet staining based analysis; type: functional, organism-based
Toxoplasma gondii [4] = assay: Antiparasitic activity against Toxoplasma gondii infected in HFF cells assessed as parasitic growth inhibition by MTT assay; type: functional, organism-based
[5] = Selectivity index, ratio of IC50 for inhibition of Toxoplasma gondii HDAC3 to IC50 for antiparasitic activity against Toxoplasma gondii infected in HFF cells; type: toxicity, cell-based; details: human
Toxoplasma gondii [6] = assay: Antiparasitic activity against Toxoplasma gondii tachyzoites; type: functional, organism-based; details: Toxoplasma gondii; read-out: EC50
Toxoplasma gondii [7] = assay: Antiparasitic activity against Toxoplasma gondii infected in mouse at 50 mg/kg assessed as reduction in parasitic growth; type: functional; parameters: scale not given: the % may be the effect or the level left
Toxoplasma gondii [8] = assay: Antiparasitic activity against Toxoplasma gondii RH tachyzoites infected in mouse BV-2 cells assessed as parasitic growth inhibition at 100 ug/ml by inverted fluorescence microscopic analysis relative to control; type: functional; parameters: scale not given: the % may be the effect or the level left; details: dose 100 µg/ml
Histone deacetylase 1 = Histone deacetylase 1 (Homo sapiens, UniProt Q13547); assay: Inhibition of HDAC1 in human HeLa nuclear extract incubated for 30 mins by fluorescence based analysis; type: cell-free
Toxoplasma gondii [9] = assay: Antiparasitic activity against Toxoplasma gondii type I infected in human foreskin fibroblast incubated for 24 hrs by Hoechst staining based microscopic analysis; type: functional, organism-based
Toxoplasma gondii [10] = assay: Antiparasitic activity against Toxoplasma gondii type II infected in human foreskin fibroblast incubated for 24 hrs by Hoechst staining based microscopic analysis; type: functional, organism-based
[11] = Inhibition of Toxoplasma gondii HDAC3
Toxoplasma gondii [12] = assay: Antiparasitic activity against Toxoplasma gondii RH tachyzoites infected in human foreskin fibroblast at 1 uM incubated for 24 hrs by phase-contrast microscopy relative to control; type: functional

Chain of Histone deacetylase 1 (Q13547 whole entry): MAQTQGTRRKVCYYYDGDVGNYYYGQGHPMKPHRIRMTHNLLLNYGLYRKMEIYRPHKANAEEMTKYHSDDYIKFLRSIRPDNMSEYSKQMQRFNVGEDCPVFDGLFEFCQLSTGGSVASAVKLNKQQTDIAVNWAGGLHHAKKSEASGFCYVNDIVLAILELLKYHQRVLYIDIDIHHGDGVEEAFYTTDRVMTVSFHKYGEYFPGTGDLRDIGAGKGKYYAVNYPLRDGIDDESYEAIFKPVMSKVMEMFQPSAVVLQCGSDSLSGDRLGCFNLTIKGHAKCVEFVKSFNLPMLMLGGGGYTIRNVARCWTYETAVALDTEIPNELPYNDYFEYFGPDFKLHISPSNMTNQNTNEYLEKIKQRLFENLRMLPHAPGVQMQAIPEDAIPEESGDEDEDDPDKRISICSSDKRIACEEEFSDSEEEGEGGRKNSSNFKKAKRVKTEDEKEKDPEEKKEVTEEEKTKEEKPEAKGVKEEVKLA

Q: With `C=CCc1cc(OC)c(O[C@@H](C)[C@H](O)c2ccc(O)c(OC)c2)c(OC)c1` as the compound, how does the EC50 (Toxoplasma gondii [1]) read?
A: The EC50 was 32.4 µg/mL (≈ 86.6 µM).

Q: Which IC50 [2] does the source give for `Cn1cc(-c2ccc3c(c2)CCN3C(=O)Cc2cccc(C(F)(F)F)c2)c2c(N)ncnc21` here?
A: Its IC50 is 0.4 nM.

Q: What about the IC50 (Toxoplasma gondii [3]) of the same compound?
A: The IC50 was 620 nM.

Q: For `CC[C@]1(C)NC(=O)[C@H](CCCCCC(=O)[C@@H](C)OC(=S)Oc2ccccc2)NC(=O)[C@H]2C[C@H](C)CN2C(=O)[C@H](Cc2ccccc2)NC1=O`, which EC50 (Toxoplasma gondii [4]) is on record?
A: The EC50 was 11.3 nM.

Q: And the “Ratio IC50” value [5]?
A: The value was 47.7.

Q: What does the source list for `C/C=C/c1cc(OC)c2c(c1)[C@@H](C)[C@H](c1ccc3c(c1)OCO3)O2` [LICARINE B]?
A: EC50 (Toxoplasma gondii [6]): 14 µg/mL (≈ 43.3 µM); Activity (Toxoplasma gondii [7]): 90%

Q: Which Activity (Toxoplasma gondii [8]) does the source give for `CC(C)=CCC[C@](C)(O)[C@H]1CC[C@]2(C)[C@@H]1[C@H](O)C[C@@H]1[C@@]3(C)CC[C@H](O[C@@H]4O[C@H](CO)[C@@H](O)[C@H](O)[C@H]4O)C(C)(C)[C@@H]3CC[C@]12C` [GINSENOSIDE RH2] here?
A: Its Activity is 63.4%.

Q: With `COc1cccc(CC(=O)Nc2ccc(C(=O)NO)cc2)c1` as the compound, how does the IC50 (Histone deacetylase 1) read?
A: The IC50 was 495 nM.

Q: And the IC50 (Toxoplasma gondii [9])?
A: Its IC50 is 350 nM.

Q: What about the IC50 (Toxoplasma gondii [10]) of the same compound?
A: Its IC50 is 2270 nM.

Q: Which IC50 [11] does the source give for `CC[C@]1(C)NC(=O)[C@H](CCCCCC(=O)[C@@H](C)O)NC(=O)[C@H]2CCCN2C(=O)[C@H](Cc2ccccc2)NC1=O` here?
A: Its IC50 is 22 nM.

Q: Which Activity (Toxoplasma gondii [12]) does the source give for `CCCCCCCCCCCCc1c(C)n(O)c2ccc(OCCN(C)C)cc2c1=O` here?
A: Its Activity is 38%.
